Bounds are passed on as bounds.

The test system of the assay is cytokine-stimulated human umbilical vein endothelial cells. In words: Cell Adhesion Assay: adherence of fluorescently-labelled leukocytes to endothelial cell monolayers. In kind it is cell-based. The settings on record: inhibition of cytokine-stimulated adhesion minus basal adhesion; calcein-AM labelled leukocytes on HUVEC monolayers. As for the experimental part: The antiadhesion activity of compounds of the invention was determined using a modification of the previously described method, Jurgensen, C. H. et. al., J. Immunol. 144: 653-661. The adhesiveness of cytokine-stimulated human umbilical vein endothelial cells was assessed by quantitating the adherence of fluorescently-labelled (calcein-AM, Molecular Probes, Eugene, Oreg.) leukocytes to endothelial cell monolayers. Activity was determined by calculating inhibition of cytokine-stimulated adhesion minus the basal adhesion (unstimulated).
In the case of `C#CCn1c(-c2ccc(/C=C/C(=O)OCCOCCOCCOCCOCCOCCOCCOCCOCCOC)cc2)nc2c1c(=O)n(CC1CCCCC1)c(=O)n2CC1CCCCC1` [Example 80, (E)-4-(1,3-Bis(cyclohexylmethyl)-2,3,6,7-tetrahydro-2,6-dioxo-7-(2-propynyl)-1H-purin-8-yl)cinnamic Acid Nonaethylene Glycol Methyl Ether Ester], the IC50 (usually the point on the concentration scale where inhibition reaches its midpoint) was 10 ± 4 nM.
To `COCCOCCOCCOCCOCCOCCOCCOCCOCCOC(=O)/C=C/c1ccc(-c2nc3c(c(=O)n(C)c(=O)n3CC3CCCCC3)n2C)cc1` [Example 105, (E)-4-[(3-Cyclohexylmethyl)-2,3,6,7-tetrahydro-2,6dioxo-1,7-dimethyl-1H-purin-8-yl]cinnamic Acid Nonaethylene Glycol Methyl Ether Ester] belongs 200 ± 80 nM; to `COCCOCCOCCOCCOCCOCCOCCOCCOCCOC(=O)/C=C/c1ccc(-c2nc3c(c(=O)n(CC4CCCCC4)c(=O)n3CC3CCCCC3)n2CC(C)=O)cc1` [Example 81, (E)-4-(1,3-Bis(cyclohexylmethyl)-2,3,6,7-tetrahydro-2,6-dioxo7-(2-oxo-2-methylethyl)-1H-purin-8-yl)cinnamic Acid Nonaethylene Glycol Methyl Ether Ester], 16 ± 18 nM; to `COCCOCCOCCOCCOCCOCCOCCOCCOCCOC(=O)/C=C/c1ccc(-c2nc3c(c(=O)n(CC4CCCCC4)c(=O)n3CC3CCCCC3)n2CC#N)cc1` [Example 87, (E)-4-(1,3-Bis(cyclohexylmethyl)-2,3,6,7-tetrahydro-2,6-dioxo-7-(cyanomethyl)-1H-purin-8-yl)cinnamic Acid Nonaethylene Glycol Methyl Ether Ester], 37 ± 13 nM.
As to `COCCOCCOCCOCCOCCOCCOCCOCCOCCOC(=O)/C=C/c1ccc(-c2nc3c(=O)n(Cc4ccc(F)cc4)c(=O)n(Cc4ccc(F)cc4)c3[nH]2)cc1` [Example 58, (E)-4-(1,3-bis(4-fluorobenzyl)-1,2,3,6-tetrahydro-2,6-dioxo-9H-purin-8-yl)cinnamic Acid Nonaethylene Glycol Methyl Ether Ester], the IC50 is below 0.1 nM.
For `CCn1c(-c2ccc(/C=C/C(=O)OCCOCCOCCOCCOCCOCCOCCOCCOCCOC)cc2)nc2c1c(=O)n(CC1CCCCC1)c(=O)n2CC1CCCCC1` [Example 83, (E)-4-(1,3-Bis(cyclohexylmethyl)-2,3,6,7-tetrahydro-2,6-dioxo-7-ethyl-1H-purin-8-yl)cinnamic Acid Nonaethylene Glycol Methyl Ether Ester] the value was 28 ± 12 nM; for `COCCOCCOCCOCCOCCOCCOCCOCCOCCNC(=O)c1ccc(-c2nc3c(=O)n(CC4CCCCC4)c(=O)n(CC4CCCCC4)c3[nH]2)cc1` [Example 75, 4-(1,3-Bis(cyclohexylmethyl)-1,2,3,6-tetrahydro-2,6-dioxo-9H-purin-8-yl)benzoic Acid Nonaethylene Glycol Methyl Ether Amide], 60 ± 25 nM; for `COCCOCCOCCOCCOCCOCCOCCOCCOCCOC(=O)/C=C/c1ccc(-c2nc3c(=O)n(CC4CCCCCC4)c(=O)n(CC4CCCCCC4)c3[nH]2)cc1` [Example 40, (E)-4-(1,3-bis(cycloheptylmethyl)-1,2,3,6-tetrahydro-2,6-dioxo-9H-purin-8-yl)cinnamic Acid Nonaethylene Glycol Methyl Ether Ester], 14 ± 7 nM.
`COCCOCCOCCOCCOCCOCCOCCNCc1ccc(-c2nc3c(=O)n(CC4CCCCC4)c(=O)n(CC4CCCCC4)c3[nH]2)cc1` [Example 106, 4-[1,3-Bis(cyclohexylmethyl)-1,2.3,6-tetrahydro-2,6-dioxo-9H-purin-8-yl]benzylamine N-Heptaethylene Glycol Methyl Ether]: the IC50 is 110 ± 56 nM.
For `COCCOCCOCCOCCOCCOCCOCCOCCOCCNC(=O)/C=C/c1ccc(-c2nc3c(c(=O)n(CC4CCCCC4)c(=O)n3CC3CCCCC3)n2Cc2ccccc2)cc1` [Example 92, (E)-4-(1,3-Bis(cyclohexylmethyl)-2,3,6,7-tetrahydro-2,6-dioxo-7-benzyl-1H-purin-8-yl)cinnamic Acid Nonaethylene Glycol Methyl Ether Amide] the value was 23 ± 12 nM.
For `COCCOCCOCCOCCOCCOCCOCCOCCOCCOC(=O)/C=C/c1ccc(-c2nc3c(=O)n(C)c(=O)n(Cc4ccc(C#N)cc4)c3[nH]2)cc1` [Example 51, (E)-4-(1-methyl-3-(4-cyanobenzyl)-1,2,3,6-tetrahydro-2,6-dioxo-9H-purin-8-yl)cinnamic Acid Nonaethylene Glycol Methyl Ether Ester] the value was above 2000 nM; for `COCCOCCOCCOCCOCCOCCOCCOCCOCCNC(=O)/C=C/c1ccc(-c2nc3c(=O)n(CC(C)C)c(=O)n(CC(C)C)c3[nH]2)cc1` [Example 72, (E)-4-(1,3-bis(2-methylpropyl)-1,2,3,6-tetrahydro-2,6-dioxo-9H-purin-8-yl)cinnamic Acid Nonaethylene Glycol Methyl Ether Amide], above 2000 nM.
To `COCCOCCOCCOCCOCCOCCOCCOCCOCCOC(=O)/C=C/c1ccc(-c2nc3c(c(=O)n(CC4CCCCC4)c(=O)n3CC3CCCCC3)n2Cc2ccccc2)cc1` [Example 77, (E)-4-(1,3-Bis(cyclohexylmethyl)-2,3,6,7-tetrahydro-2,6-dioxo-7-benzyl-1H-purin-8-yl)cinnamic Acid Nonaethylene Glycol Methyl Ether Ester] belongs 9.6 ± 5 nM; to `COCCOCCOCCOCCOCCOCCOCCOCCOCCOC(=O)CCc1ccc(-c2nc3c(c(=O)n(CC4CCCCC4)c(=O)n3CC3CCCCC3)n2C)cc1` [Example 90, 4-[(1,3-Bis(cyclohexylmethyl)-2,3,6,7-tetrahydro-2,6-dioxo-7-methyl-1H-purin-8-yl)phenyl] propionic Acid Nonaethylene Glycol Methyl Ether Ester], 240 ± 140 nM; to `COCCOCCOCCOCCOCCOCCOCCOCCOCCOC(=O)/C=C/c1ccc(-c2nc3c(=O)n(CCC4CCCCC4)c(=O)n(CCC4CCCCC4)c3[nH]2)cc1` [Example 41, (E)-4-(1,3-bis(2-cyclohexylethyl)-1,2,3,6-tetrahydro-2,6-dioxo-9H-purin-8-yl)cinnamic Acid Nonaethylene Glycol Methyl Ether Ester], 21 ± 12 nM.
Regarding `CCCCn1c(=O)n(CC2CCCCC2)c(=O)c2nc(-c3ccc(/C=C/C(=O)OCCOCCOCCOCCOCCOCCOCCOCCOCCOC)cc3)[nH]c21` [Example 48], the IC50 was below 0.1 nM.
Regarding `C=C(C)Cn1c(-c2ccc(/C=C/C(=O)OCCOCCOCCOCCOCCOCCOCCOCCOCCOC)cc2)nc2c1c(=O)n(CC1CCCCC1)c(=O)n2CC1CCCCC1` [Example 86, (E)-4-(1,3-Bis(cyclohexylmethyl)-2,3,6,7-tetrahydro-2,6-dioxo-7-(2-methyl-2-propenyl)-1H-purin-8-yl)cinnamic Acid Nonaethylene Glycol Methyl Ether Ester], the IC50 was 8 ± 3 nM.
For `COCCOCCOCCOCCOCCOCCOCCOCCOCCOC(=O)c1ccc(-c2nc3c(=O)n(CC4CCCCC4)c(=O)n(CC4CCCCC4)c3[nH]2)cc1` [Example 65, 4-(1,3-bis(cyclohexylmethyl)-1,2,3,6-tetrahydro-2,6-dioxo-9H-purin-8-yl)benzoic Acid Nonaethylene Glycol Methyl Ether Ester] the value was 48 ± 19 nM.
